Patent publication US20070093524A1, “5-Lipoxygenase modulators” (Wyeth, priority 2005, published 2007)

Tests used:
[1] = system: 5-LO mRNA; assay: Downregulation of 5-LO gene expression (5-LO mRNA by real-time RT-PCR) in acetylated-LDL-stimulated macrophage cell lines; type: cell-based, human and mouse; settings: macrophage cell line (THP-1 or J774, not specified); for inhibition at 0.3 µM: 0.3 uM compound; for inhibition at 3 µM: 3.0 uM compound; for inhibition at 0.1 µM: 0.1 uM compound; for inhibition at 1 µM: 1.0 uM compound
Experimental: A panel of LXR or PPAR modulator compounds was tested to determine whether they could downregulate 5-LO gene expression. The compounds were individually tested to determine whether they could downregulate 5-LO gene expression in human and mouse macrophage cell lines.
Preparation of Acetylated LDL: LDL was dialyzed with 500 mL phosphate buffered saline (PBS) three times. 2.5 mL of dialyzed LDL was mixed with 2.5 mL of saturated sodium acetate with continuous stirring in an ice-water bath. Acetic anhydride was added in 7 times 7.5 μL over a period of 1 hour with continuous stirring. Then, the mixture was stirred for an additional 1 hour. The solution was dialyzed against 500 mL PBS containing 0.3 mM EDTA three times. The protein concentration is determined using Bio-Rad DC protein assay kit.
Cell Culture and Compound Treatment: Human THP-1 cells were maintained in RPMI 1640 medium containing 10% Fetal Bovine Serum (FBS), 25 mM Hepes buffer, […] Genamicin, 1 mM Sodium pyruvate, and 50 μM β-mercaptoethanol. THP-1 cells were differentiated with 75 ng/mL phorbal 12,13-dibutyrate (PDBu) three days prior to assay to induce differentiation of the cells into adherent macrophages. Cells were seeded in 12 well plates in 1 mL of complete media. Each well contained 400,000 cells. The cells were stimulated with RPMI 1640 medium (1% FBS) containing 100 μg/mL acetylated-LDL in presence of phorbol ester for 48 hours, including several wells without acetylated-LDL treatment as a control. The medium was then changed to RPMI 1640 medium without FBS, plus the test compounds with phorbol ester for 48 hours. Control cells were not incubated with test compounds. The cells were incubated at 37° C. in a humidified CO2 incubator. The cells were then ready for RNA extraction.
Murine J774 cells were maintained in DMEM (high glucose) containing 10% FBS, 100 units/mL penicillin, and 100 μg/mL streptomycin. Six hours prior to assay, J774 cells were seeded into 96-well plates in 150 μL complete media. Each well contains 75,000 cells. The cells were stimulated with DMEM-high glucose (1% FBS) containing 100 μg/mL acetylated-LDL for 24 to 48 hours, including several wells without acetylated-LDL treatment as a control. The media was then changed to DMEM-high glucose (without FBS) plus the test compounds for 24 to 48 hours. Compounds were dosed in DMSO vehicle and control cells were treated with vehicle alone. The cells were incubated at 37° C. in a humidified CO2 incubator. The cells were then ready for RNA isolation.
RNA analysis: Total RNA was isolated from the THP-1 cells by using a QIAGEN RNeasy Mini Kit. Real-time quantitative RT-PCR assays were performed using an Applied Biosystems 7900 sequence detector. Each amplification mixture (50 μL) contained 50-100 ng of total RNA, 200 nM forward primer, 200 nM reverse primer, and 200 nM dual-labeled fluorogenic probe. The RT-PCR reagent is from QIAGEN (QuantiTect Probe RT-PCR kit). The RT-PCR thermocycling parameters were 48° C. for 30 minutes, 95° C. for 10 minutes, and 40 cycles at 95° C. for 15 seconds and 55° C. for 1 minute. The samples, no-RT controls, and serially diluted RNA standards were analyzed in parallel. The 5-LO target gene was analyzed and normalized for human glyceraldehyde-3-phosphate dehydrogenase (GAPDH) expression using probe and primers from predeveloped assays for GAPDH (Applied Biosystems). Quantitative analysis was performed using the threshold procedure, and relative amounts were calculated from the standard curve.
Total RNA from the J774 cells was isolated by using the ABI 6100 RNA isolation system for 96-well plates (the THP-1 cells can also be cultured and tested in 96-well plates). Real-time quantitative RT-PCR assays were performed using an Applied Biosystems 7900 sequence detector. Each amplification mixture (50 μL) contained 50-100 ng of total RNA, 200 nM forward primer, 200 nM reverse primer, and 250 nM dual-labeled fluorogenic probe.

| melting point | Compound | inhibition at 0.3 µM [1] | inhibition at 3 µM [1] | inhibition at 0.1 µM [1] | inhibition at 1 µM [1] |
| --- | --- | --- | --- | --- | --- |
| – | CCOC(=O)Cc1ccc(COc2cccc(-c3c(-c4ccccc4)cnc4c(C(F)(F)F)cccc34)c2)cc1 [Compound I-14, {4-[3-(3-Phenyl-8-trifluoromethyl-quinolin-4-yl)-phenoxymethyl]-phenyl}-acetic acid ethyl ester] | 81% | 84% | – | – |
| – | NNC(=O)Cc1ccc(CNc2cccc(-c3c(Cc4ccccc4)cnc4c(C(F)(F)F)cccc34)c2)cc1 [Compound I-12, (4-{[3-(3-Benzyl-8-trifluoromethyl-quinolin-4-yl)-phenylamino]-methyl}-phenyl)-acetic acid hydrazide] | 71% | 76% | – | – |
| – | COc1cc(CNc2cccc(-c3c(Cc4ccccc4)cnc4c(C(F)(F)F)cccc34)c2)ccc1O [Compound I-17, 4-{[3-(3-Benzyl-8-trifluoromethyl-quinolin-4-yl)-phenylamino]-methyl}-2-methoxy-phenol] | 41% | 53% | – | – |
| 122 °C | O=C(O)Cc1ccc(COc2cccc(-c3c(-c4ccccc4)cnc4c(C(F)(F)F)cccc34)c2)cc1 [Compound I-3, {4-[3-(3-Phenyl-8-trifluoromethyl-quinolin-4-yl)-phenoxymethyl]-phenyl}-acetic acid] | – | – | 88% | 89% |
| – | COC(=O)COc1ccc(COc2cccc(-c3c(-c4ccccc4)cnc4c(C(F)(F)F)cccc34)c2)cc1 [Compound I-23, {4-[3-(3-Phenyl-8-trifluoromethyl-quinolin-4-yl)-phenoxymethyl]-phenoxy}-acetic acid methyl ester] | 76% | 92% | – | – |
| – | COC(=O)C(C)(C)c1ccc(CNc2cccc(-c3c(C)cnc4c(C(F)(F)F)cccc34)c2)cc1 [Compound I-22, 2-Methyl-2-(4-{[3-(3-methyl-8-trifluoromethyl-quinolin-4-yl)-phenylamino]-methyl}-phenyl)-propionic acid methyl ester] | 67% | 55% | – | – |
| – | CCOc1cc(CNc2cccc(-c3c(Cc4ccccc4)cnc4c(C(F)(F)F)cccc34)c2)ccc1O [Compound I-19, 4-{[3-(3-Benzyl-8-trifluoromethyl-quinolin-4-yl)-phenylamino]-methyl}-2-ethoxy-phenol] | 22% | 60% | – | – |
| – | Cc1cnc2c(C(F)(F)F)cccc2c1-c1cccc(OCc2ccc([C@@H](C)C(=O)O)cc2)c1 [Compound I-10, (2R)-2-{4-[3-(3-Methyl-8-trifluoromethyl-quinolin-4-yl)-phenoxymethyl]-phenyl}-propionic acid] | – | – | 86% | 83% |
| – | O=C(O)Cc1ccc(C#Cc2cccc(-c3c(Cc4ccccc4)cnc4c(C(F)(F)F)cccc34)c2)cc1 [Compound I-9, {4-[3-(3-Benzyl-8-trifluoromethyl-quinolin-4-yl)-phenylethynyl]-phenyl}-acetic acid] | – | – | 22% | 45% |
| – | CCOC(=O)Cc1ccc(COc2cccc(-c3c(Cc4ccccc4)cnc4c(C(F)(F)F)cccc34)c2)cc1 [Compound I-15, {4-[3-(3-Benzyl-8-trifluoromethyl-quinolin-4-yl)-phenoxymethyl]-phenyl}-acetic acid ethyl ester] | 79% | 76% | – | – |
| – | COC(=O)Cc1ccc(CNc2cccc(-c3c(C)cnc4c(C(F)(F)F)cccc34)c2)cc1 [Compound I-20, (4-{[3-(3-Methyl-8-trifluoromethyl-quinolin-4-yl)-phenylamino]-methyl}-phenyl)-acetic acid methyl ester] | 78% | 78% | – | – |
| – | Oc1cccc(CNc2cccc(-c3c(Cc4ccccc4)cnc4c(C(F)(F)F)cccc34)c2)c1O [Compound I-18, 3-{[3-(3-Benzyl-8-trifluoromethyl-quinolin-4-yl)-phenylamino]-methyl}-benzene-1,2-diol] | 63% | 58% | – | – |
| – | COC(=O)C(C)c1ccc(CNc2cccc(-c3c(C)cnc4c(C(F)(F)F)cccc34)c2)cc1 (centres unmarked) [Compound I-21, 2-(4-{[3-(3-Methyl-8-trifluoromethyl-quinolin-4-yl)-phenylamino]-methyl}-phenyl)-propionic acid methyl ester] | 78% | 63% | – | – |
| – | Cc1cnc2c(C(F)(F)F)cccc2c1-c1cccc(OCc2ccc(CC(=O)O)cc2)c1 [Compound I-4, {4-[3-(3-Methyl-8-trifluoromethyl-quinolin-4-yl)-phenoxymethyl]-phenyl}-acetic acid] | – | – | 79% | 90% |
| – | Cc1cnc2c(Cl)cccc2c1-c1cccc(OCc2ccc(CC(=O)O)cc2)c1 [Compound I-6, {4-[3-(8-Chloro-3-methyl-quinolin-4-yl)-phenoxymethyl]-phenyl}-acetic acid] | – | – | 62% | 81% |
| – | O=C(O)Cc1ccc(COc2cccc(-c3c(-c4ccccc4)cnc4c(Cl)cccc34)c2)cc1 [Compound I-5, {4-[3-(8-Chloro-3-phenyl-quinolin-4-yl)-phenoxymethyl]-phenyl}-acetic acid] | – | – | 87% | 91% |
| – | O=C(O)Cc1ccc(CNc2cccc(-c3c(Cc4ccccc4)cnc4c(C(F)(F)F)cccc34)c2)cc1 [Compound I-1, (4-{[3-(3-Benzyl-8-trifluoromethyl-quinolin-4-yl)-phenylamino]-methyl}-phenyl)-acetic acid] | 82% | 83% | 91% | 88% |
| – | CC(C)(C(=O)O)c1ccc(COc2cccc(-c3c(-c4ccccc4)cnc4c(Cl)cccc34)c2)cc1 [Compound I-8, 2-{4-[3-(8-Chloro-3-phenyl-quinolin-4-yl)-phenoxymethyl]-phenyl}-2-methyl-propionic acid] | – | – | 89% | 93% |
| – | CCOC(=O)Cc1cccc(CNc2cccc(-c3c(C(=O)c4ccccc4)cnc4c(C(F)(F)F)cccc34)c2)c1 [Compound I-13, (3-{[3-(3-Benzoyl-8-trifluoromethyl-quinolin-4-yl)-phenylamino]-methyl}-phenyl)-acetic acid ethyl ester] | 40% | 30% | – | – |
| – | COC(=O)Cc1ccc(CNc2cccc(-c3c(C(=O)c4ccccc4)cnc4c(C(F)(F)F)cccc34)c2)cc1 [Compound I-11, (4-{[3-(3-Benzoyl-8-trifluoromethyl-quinolin-4-yl)-phenylamino]-methyl}-phenyl)-acetic acid methyl ester] | 74% | 71% | – | – |
| – | O=C(O)Cc1ccc(COc2cccc(-c3c(Cc4ccccc4)cnc4c(C(F)(F)F)cccc34)c2)cc1 [Compound I-2, {4-[3-(3-Benzyl-8-trifluoromethyl-quinolin-4-yl)-phenoxymethyl]-phenyl}-acetic acid] | – | – | 84% | 92% |
| – | CC(C)(C(=O)O)c1ccc(COc2cccc(-c3c(Cc4ccccc4)cnc4c(C(F)(F)F)cccc34)c2)cc1 [Compound I-7, 2-{4-[3-(3-Benzyl-8-trifluoromethyl-quinolin-4-yl)-phenoxymethyl]-phenyl}-2-methyl-propionic acid] | – | – | 87% | 88% |
